Reference: publication PMC4741607 (Oncotarget, 2015)
Like-named read-outs stand apart in the source and are kept apart here.

Assays:
H3255 (EGFR L858R) = assay: Proliferation (CellTiter-Glo), H3255; format: cell-based, human; conditions: Homo sapiens, NCI-H3255; H3255, EGFR L858R, 72 hours; read-out: GI50
Procedure: (§2) The human cancer cell lines A549, A431, H3255, H1975, PC-9, HCC827, H23, H460, A549, H358 and H2122 cells were purchased from the American Type Culture Collection (ATCC) (Manassas, VA, USA). […] A549 and A431 were cultured in DMEM media (Corning, USA) with 10% FBS and supplemented with 2% L-glutamine and 1% pen/strep. H3255 was cultured in BEGM media (LONZA, USA) with 10% FBS and supplemented with 2% L-glutamine and 1% pen/strep.
(§3) Cells were grown in 96-well culture plates (2500–3000/well). For adherent cell lines, compounds of various concentrations were added into the plates after cells were cultured for 12 hours. Cell proliferation was determined after treatment with compounds for 72 hours. Cell viability was measured using the CellTiter–Glo assay (Promega, USA), according to the manufacturer's instructions, and luminescence was measured in a multi-label reader (Envision, PerkinElmer, USA). Data were normalized to control groups (DMSO) and represented by the mean of three independent measurements with standard error <20%. GI50 values were calculated using Prism 5.0 (GraphPad Software, San Diego, CA).

H1975 (EGFR L858R/T790M) = assay: Proliferation (CellTiter-Glo), H1975; format: cell-based, human; conditions: Homo sapiens, NCI-H1975; H1975, EGFR L858R/T790M, 72 hours; read-out: GI50
Procedure: as §2, §3

PC-9 (EGFR Del19) = assay: Proliferation (CellTiter-Glo), PC-9; format: cell-based, human; conditions: Homo sapiens; PC-9, EGFR Del19, 72 hours; read-out: GI50
Procedure: as §2, §3

HCC827 (EGFR Del19) = assay: Proliferation (CellTiter-Glo), HCC827; format: cell-based, human; conditions: Homo sapiens; HCC827, EGFR Del19, 72 hours; read-out: GI50
Procedure: as §2, §3

H23 (EGFR wt) = assay: Proliferation (CellTiter-Glo), H23; format: cell-based, human; conditions: Homo sapiens; H23, EGFR wt, 72 hours; read-out: GI50
Procedure: as §2, §3

H460 (EGFR wt) = assay: Proliferation (CellTiter-Glo), H460; format: cell-based, human; conditions: Homo sapiens, NCI-H460; H460, EGFR wt, 72 hours; read-out: GI50
Procedure: as §2, §3

A549 (EGFR wt) = assay: Proliferation (CellTiter-Glo), A549; format: cell-based, human; conditions: Homo sapiens; A549, EGFR wt, 72 hours; read-out: GI50
Procedure: as §2, §3

H358 (EGFR wt) = assay: Proliferation (CellTiter-Glo), H358; format: cell-based, human; conditions: Homo sapiens, NCI-H358; H358, EGFR wt, 72 hours; read-out: GI50
Procedure: as §2, §3

A431 (EGFR wt) = assay: Proliferation (CellTiter-Glo), A431; format: cell-based, human; conditions: Homo sapiens, A-431; A431, EGFR wt, 72 hours; read-out: GI50
Procedure: as §2, §3

H2122 (EGFR wt) = assay: Proliferation (CellTiter-Glo), H2122; format: cell-based, human; conditions: Homo sapiens, NCI-H2122; H2122, EGFR wt, 72 hours; read-out: GI50
Procedure: as §2, §3

[1] = test system: EGFR Y1068 in PC-9, HCC827, and H3255; assay: EGFR Y1068 auto-phosphorylation in EGFR primary mutant cell lines; format: cell-based, human; conditions: range over PC-9, HCC827, and H3255
Description: Antibodies were used at 1:1000.
(§4) Cells were then washed with PBS and lysed in cell lysis buffer.

H1975 cells [2] = assay: Cell cycle analysis (FACS), H1975; format: cell-based, human
Procedure: (§5) The cells were fixed in 70% cold ethanol and incubated at −20°C overnight then stained with PI/RNase staining buffer (BD Pharmingen). Flow cytometry was performed using a FACS Calibur (BD), and results were analyzed by ModFit software.

H460 cells = assay: Cell cycle analysis (FACS), H460; format: cell-based, human; conditions: H460, 48h
Procedure: as §5

PC-9 cells = assay: Cell cycle analysis (FACS), PC-9; format: cell-based, human; conditions: PC-9, 24h
Procedure: as §5

H3255 cells = assay: Cell cycle analysis (FACS), H3255; format: cell-based, human; conditions: H3255, 24h
Procedure: as §5

HCC827 cells = assay: Cell cycle analysis (FACS), HCC827; format: cell-based, human; conditions: HCC827, 24 h
Procedure: as §5

PC-9 xenograft = PC-9 xenograft mouse model; format: in vivo, Nude (Nu/Nu) mice; conditions: PC-9 xenograft, 25, 50, 100 mg/Kg BID oral gavage, 22 days
Procedure: (§1) Tumor diameter was measured 3 times weekly. Tumor volumes (V) were calculated by the equation (V = length × width × width/2). ALL experiments and procedures followed the guidelines of the Institutional Animal Care and Use Committees of National Institue of Biological Sciences, Beijing.

H1975 xenograft = H1975 xenograft mouse model; format: in vivo, Nude (Nu/Nu) mice
Procedure: as §1

PI3K kinase = assay: PI3K kinases ADP-Glo assay; format: biochemical; conditions: Fig. S8
[3] = test system: Akt Thr308 and Ser473 phosphorylation in H1975; assay: Signaling pathway immunoblotting, H1975; format: cell-based, human; conditions: H1975, 4 hours
Description: Antibodies were used at 1:1000.
as §4

H1975 cells [4] = conditions: DMSO = 100
Procedure: as §3

H1975 cells [5] = assay: cells; conditions: Homo sapiens, NCI-H1975, read-out: Relative activity (%)
Procedure: as §3

C=CC(=O)N1CCC[C@@H](n2nc(-c3ccc(Oc4ccccc4)cc3)c3c(N)ncnc32)C1 [ibrutinib, Ibrutinib]
GI50 (H3255 (EGFR L858R)): 110 nM | GI50 (H1975 (EGFR L858R/T790M)): 1200 nM | GI50 (PC-9 (EGFR Del19)): 50 nM | GI50 (HCC827 (EGFR Del19)): 63 nM | GI50 (H23 (EGFR wt)): > 10000 nM | GI50 (H460 (EGFR wt)): > 10000 nM | GI50 (A549 (EGFR wt)): > 10000 nM | GI50 (H358 (EGFR wt)): > 10000 nM | GI50 (A431 (EGFR wt)): > 10000 nM | GI50 (H2122 (EGFR wt)): > 10000 nM | EC50 [1]: 23 to 58 nM | %G0-G1 (H1975 cells [2]; H1975, 12h, 0.3 μM): 69.44% | %G2-M (H1975 cells [2]; H1975, 12h, 0.3 μM): 10.92% | %G0-G1 (H1975 cells [2]; H1975, 12h, 3 μM): 74.28% | %G0-G1 (H1975 cells [2]; H1975, 24h, 0.3 μM): 81.96% | %G2-M (H1975 cells [2]; H1975, 24h, 0.3 μM): 6.76% | %G0-G1 (H1975 cells [2]; H1975, 24h, 3 μM): 86.20% | %G2-M (H1975 cells [2]; H1975, 24h, 3 μM): 4.83% | %G0-G1 (H1975 cells [2]; H1975, 48h, 0.3 μM): 92.06% | %G2-M (H1975 cells [2]; H1975, 48h, 0.3 μM): 2.43% | %G0-G1 (H1975 cells [2]; H1975, 48h, 3 μM): 93.79% | %G2-M (H1975 cells [2]; H1975, 48h, 3 μM): 1.31% | %G0-G1 (H460 cells; 0.3 μM): 69.88% | %G2-M (H460 cells; 0.3 μM): 5.02% | %G0-G1 (H460 cells; 3 μM): 70.49% | %G2-M (H460 cells; 3 μM): 5.09% | %G0-G1 (PC-9 cells; 0.3 μM): 81.91% | %G2-M (PC-9 cells; 0.3 μM): 10.77% | %G0-G1 (PC-9 cells; 3 μM): 84.9% | %G2-M (PC-9 cells; 3 μM): 8.54% | %G0-G1 (H3255 cells; 0.3 μM): 82.82% | %G2-M (H3255 cells; 0.3 μM): 9.73% | %G0-G1 (H3255 cells; 3 μM): 89.05% | %G2-M (H3255 cells; 3 μM): 5.24% | %G0-G1 (HCC827 cells; 0.3 μM): 78.26% | %G2-M (HCC827 cells; 0.3 μM): 6.86% | %G0-G1 (HCC827 cells; 3 μM): 80.37% | %G2-M (HCC827 cells; 3 μM): 5.91% | anti-tumor activity (tumor progression) (PC-9 xenograft): tumor progression slow down efficacy | anti-tumor activity (tumor progression) (H1975 xenograft; 50 mg/kg BID oral gavage, 23-day): slowed down tumor progression | anti-tumor activity, higher dosage versus 50 mg/kg BID (H1975 xenograft; 100 mg/Kg BID): did not improve efficacy | enzymatic activity against PI3K kinase (PI3K kinase): did not have apparent enzymatic activity | phosphorylation of Akt Thr308 and Ser473 [3]: significantly affected the phosphorylation of Akt Thr308 and Ser473 | H1975 cell lines growth (H1975 cells [4]; single agent 0.37 μM): 43.77 | H1975 cell lines growth (H1975 cells [4]; single agent 1.1 μM): 34.56 | activity at 1.1 µM (H1975 cells [5]): 52.3%
